Test results: PubChem BioAssay AID1259352

The molecules below were run on C. elegans N2 L1 growth, INVAPP movement imaging, 5 d (assay: nematode growth block, anthelmintic potency – whole organism, N2 L1 worms, INVAPP movement imaging, dose response (AID 1259352)).

Point of comparison: COc1ccccc1CNc1nc(NCCOc2ccccc2Cl)c2sccc2n1, EC50 7 µM. Against it:
- CNc1nc(NCCOc2ccccc2Cl)c2sccc2n1 — 1.6-fold higher, 11 µM
- CNc1nc(NCCOc2ccccc2)c2sccc2n1 — 12-fold higher, 82 µM
- COCCNc1nc(NCCOc2ccccc2Cl)c2sccc2n1 — 12-fold higher, 87 µM
